According to ChEMBL document CHEMBL1136407, “Binding mode of 6ECDCA, a potent bile acid agonist of the farnesoid X receptor (FXR)” (Bioorg Med Chem Lett, 2003):

Biological target: T1, Bile acid receptor (Homo sapiens, UniProt Q96RI1)
T1 sequence (Q96RI1 whole entry): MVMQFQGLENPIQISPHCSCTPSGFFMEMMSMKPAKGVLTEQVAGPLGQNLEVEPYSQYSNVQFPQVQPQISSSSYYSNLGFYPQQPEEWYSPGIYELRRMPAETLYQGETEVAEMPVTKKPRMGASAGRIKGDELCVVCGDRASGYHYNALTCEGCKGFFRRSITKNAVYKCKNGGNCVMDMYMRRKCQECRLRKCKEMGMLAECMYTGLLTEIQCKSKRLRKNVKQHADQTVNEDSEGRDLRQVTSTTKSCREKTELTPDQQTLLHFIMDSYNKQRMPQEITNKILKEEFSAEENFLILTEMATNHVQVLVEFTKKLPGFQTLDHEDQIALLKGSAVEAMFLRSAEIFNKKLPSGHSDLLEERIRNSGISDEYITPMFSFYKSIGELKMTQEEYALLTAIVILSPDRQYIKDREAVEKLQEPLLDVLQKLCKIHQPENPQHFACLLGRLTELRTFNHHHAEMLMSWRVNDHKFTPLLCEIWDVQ
Experiment: Binding affinity for Farnesoid X Receptor (FXR)

EC50: > 30 µM
SMILES: C[C@H](CCC(=O)O)C1CC[C@H]2[C@@H]3[C@H](O)[C@H](Cc4ccccc4)C4C[C@H](O)CC[C@]4(C)[C@H]3CC[C@]12C (stereo partly specified)
